Measured values reported in patent US8192962B2, “Processes for detecting toxic substances” (Daikin Industries, Ltd., priority 2001, dated 2012).

System: Energy system protein genes
Assay: DNA chip mRNA expression in yeast, energy system protein genes (Table 4)
Assay type: cell-based, Saccharomyces cerevisiae S288C
In short: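 In this screen, yeast in logarithmic growth are challenged for two hours with a toxic substance at a non-lethal inhibitory concentration. Their mRNA, converted to Cy3- or Cy5-labeled cDNA, hybridizes at 65° C. to a chip spanning every yeast gene, and expression is expressed as a ratio to untreated cells.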

SMILES: [Cl][Hg][Cl] [(3), HgCl2]
- The level of expressed mRNA in the presence of chemical substance/The level of expressed mRNA in the absence of chemical substance (yeast gene YAL060W): 3.2
- The level of expressed mRNA in the presence of chemical substance/The level of expressed mRNA in the absence of chemical substance (yeast gene YBL058W, cells incubated two hours with the chemical substance): 0.5
- The level of expressed mRNA in the presence of chemical substance/The level of expressed mRNA in the absence of chemical substance (yeast gene YBL099W, cells incubated two hours with the chemical substance): 3.1
- The level of expressed mRNA in the presence of chemical substance/The level of expressed mRNA in the absence of chemical substance (yeast gene YBR001C, cells incubated two hours with the chemical substance): 1.1
- The level of expressed mRNA in the presence of chemical substance/The level of expressed mRNA in the absence of chemical substance (yeast gene YBR185C, cells incubated two hours with the chemical substance): 1.3
- The level of expressed mRNA in the presence of chemical substance/The level of expressed mRNA in the absence of chemical substance (yeast gene YBR221C, cells incubated two hours with the chemical substance): 3.2
- The level of expressed mRNA in the presence of chemical substance/The level of expressed mRNA in the absence of chemical substance (yeast gene YCL040W): 10.1
- The level of expressed mRNA in the presence of chemical substance/The level of expressed mRNA in the absence of chemical substance (yeast gene YCR012W): 5.1
- The level of expressed mRNA in the presence of chemical substance/The level of expressed mRNA in the absence of chemical substance (yeast gene YCR046C, cells incubated two hours with the chemical substance): 1.2
- The level of expressed mRNA in the presence of chemical substance/The level of expressed mRNA in the absence of chemical substance (yeast gene YCR105W, cells incubated two hours with the chemical substance): 1.2
- The level of expressed mRNA in the presence of chemical substance/The level of expressed mRNA in the absence of chemical substance (yeast gene YDL021W): 2.4
- The level of expressed mRNA in the presence of chemical substance/The level of expressed mRNA in the absence of chemical substance (yeast gene YDL067C, cells incubated two hours with the chemical substance): 1.6
- The level of expressed mRNA in the presence of chemical substance/The level of expressed mRNA in the absence of chemical substance (yeast gene YDL078C, cells incubated two hours with the chemical substance): 1.2
- The level of expressed mRNA in the presence of chemical substance/The level of expressed mRNA in the absence of chemical substance (yeast gene YDL107W, cells incubated two hours with the chemical substance): 1.0
- The level of expressed mRNA in the presence of chemical substance/The level of expressed mRNA in the absence of chemical substance (yeast gene YDL174C): 0.9
- The level of expressed mRNA in the presence of chemical substance/The level of expressed mRNA in the absence of chemical substance (yeast gene YDL181W, cells incubated two hours with the chemical substance): 1.9
- The level of expressed mRNA in the presence of chemical substance/The level of expressed mRNA in the absence of chemical substance (yeast gene YDR001C): 2.6
- The level of expressed mRNA in the presence of chemical substance/The level of expressed mRNA in the absence of chemical substance (yeast gene YDR050C, cells incubated two hours with the chemical substance): 2.3
- The level of expressed mRNA in the presence of chemical substance/The level of expressed mRNA in the absence of chemical substance (yeast gene YDR079W, cells incubated two hours with the chemical substance): 0.8
- The level of expressed mRNA in the presence of chemical substance/The level of expressed mRNA in the absence of chemical substance (yeast gene YDR178W, cells incubated two hours with the chemical substance): 3.4
- The level of expressed mRNA in the presence of chemical substance/The level of expressed mRNA in the absence of chemical substance (yeast gene YDR231C): 1.0
- The level of expressed mRNA in the presence of chemical substance/The level of expressed mRNA in the absence of chemical substance (yeast gene YDR298C, cells incubated two hours with the chemical substance): 2.6
- The level of expressed mRNA in the presence of chemical substance/The level of expressed mRNA in the absence of chemical substance (yeast gene YDR377W, cells incubated two hours with the chemical substance): 1.3
- The level of expressed mRNA in the presence of chemical substance/The level of expressed mRNA in the absence of chemical substance (yeast gene YDR529C, cells incubated two hours with the chemical substance): 0.9
- The level of expressed mRNA in the presence of chemical substance/The level of expressed mRNA in the absence of chemical substance (yeast gene YEL024W, cells incubated two hours with the chemical substance): 3.8
- The level of expressed mRNA in the presence of chemical substance/The level of expressed mRNA in the absence of chemical substance (yeast gene YEL039C, cells incubated two hours with the chemical substance): 1.3
- The level of expressed mRNA in the presence of chemical substance/The level of expressed mRNA in the absence of chemical substance (yeast gene YER178W): 3.6
- The level of expressed mRNA in the presence of chemical substance/The level of expressed mRNA in the absence of chemical substance (yeast gene YFL057C): 1.5
- The level of expressed mRNA in the presence of chemical substance/The level of expressed mRNA in the absence of chemical substance (yeast gene YFR053C): 3.0
- The level of expressed mRNA in the presence of chemical substance/The level of expressed mRNA in the absence of chemical substance (yeast gene YGL018C, cells incubated two hours with the chemical substance): 1.8
- The level of expressed mRNA in the presence of chemical substance/The level of expressed mRNA in the absence of chemical substance (yeast gene YGL062W): 1.1
- The level of expressed mRNA in the presence of chemical substance/The level of expressed mRNA in the absence of chemical substance (yeast gene YGL187C, cells incubated two hours with the chemical substance): 1.6
- The level of expressed mRNA in the presence of chemical substance/The level of expressed mRNA in the absence of chemical substance (yeast gene YGL191W, cells incubated two hours with the chemical substance): 1.4
- The level of expressed mRNA in the presence of chemical substance/The level of expressed mRNA in the absence of chemical substance (yeast gene YGL205W, cells incubated two hours with the chemical substance): 0.7
- The level of expressed mRNA in the presence of chemical substance/The level of expressed mRNA in the absence of chemical substance (yeast gene YGL256W, cells incubated two hours with the chemical substance): 1.1
- The level of expressed mRNA in the presence of chemical substance/The level of expressed mRNA in the absence of chemical substance (yeast gene YGR043C): 3.2
- The level of expressed mRNA in the presence of chemical substance/The level of expressed mRNA in the absence of chemical substance (yeast gene YGR062C, cells incubated two hours with the chemical substance, 25° C., YPD medium): 0.7
- The level of expressed mRNA in the presence of chemical substance/The level of expressed mRNA in the absence of chemical substance (yeast gene YGR087C, cells incubated two hours with the chemical substance): 1.7
- The level of expressed mRNA in the presence of chemical substance/The level of expressed mRNA in the absence of chemical substance (yeast gene YGR174C, cells incubated two hours with the chemical substance): 0.6
- The level of expressed mRNA in the presence of chemical substance/The level of expressed mRNA in the absence of chemical substance (yeast gene YGR192C): 3.8
- The level of expressed mRNA in the presence of chemical substance/The level of expressed mRNA in the absence of chemical substance (yeast gene YGR244C): 1.6
- The level of expressed mRNA in the presence of chemical substance/The level of expressed mRNA in the absence of chemical substance (yeast gene YGR254W): 3.8
- The level of expressed mRNA in the presence of chemical substance/The level of expressed mRNA in the absence of chemical substance (yeast gene YHR179W): 2.6
- The level of expressed mRNA in the presence of chemical substance/The level of expressed mRNA in the absence of chemical substance (yeast gene YIL160C): 2.3
- The level of expressed mRNA in the presence of chemical substance/The level of expressed mRNA in the absence of chemical substance (yeast gene YIR031C, cells incubated two hours with the chemical substance): 0.6
- The level of expressed mRNA in the presence of chemical substance/The level of expressed mRNA in the absence of chemical substance (yeast gene YJL052W): 4.0
- The level of expressed mRNA in the presence of chemical substance/The level of expressed mRNA in the absence of chemical substance (yeast gene YJL121C, cells incubated two hours with the chemical substance): 1.9
- The level of expressed mRNA in the presence of chemical substance/The level of expressed mRNA in the absence of chemical substance (yeast gene YJL166W, cells incubated two hours with the chemical substance): 1.6
- The level of expressed mRNA in the presence of chemical substance/The level of expressed mRNA in the absence of chemical substance (yeast gene YJL216C, cells incubated two hours with the chemical substance): 2.2
- The level of expressed mRNA in the presence of chemical substance/The level of expressed mRNA in the absence of chemical substance (yeast gene YJR009C): 5.6
